This is an account of results in patent publication US8338422B2, “Indolin-2-ones and aza-indolin-2-ones” (Janssen Pharmaceutica NV, priority 2007, dated 2012).

Several values for one entry are separate records, joined by “and”; a condition that tells them apart may be missing. Equal values may be shown once.

The target of assay [1] is GSK3β (h) (Homo sapiens, UniProt P49841). Kind of assay: GSK-3β human kinase assay (SPA). The class given is biochemical. The conditions noted are these: for IC50: read-out: GSK3B pIC50 (converted). An outline of the steps:
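Radiometric SPA read-out: after EDTA stop, biotinylated 33P-labelled peptide bound streptavidin PVT beads and was imaged on Leadseeker. Reaction: 60 min, room temperature, GSK3β (h) at 1 μg/ml, 1 μM substrate peptide, 1 μM ATP with 2 nM [γ-33P]ATP, Tris pH 7.4/MgCl2/DTT buffer.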

In assay [2] the test system is A2780. Kind of assay: Cellular proliferation assay (Alamar blue), A2780. To be noted: A2780 cells, 72 hours with compound, 10% FCS; for IC50: Homo sapiens, A2780, 72 h, read-out: pIC50 A2780 (converted). Type of assay: cell-based. The procedure:
(§1) […] functional properties of these compounds was tested in cellular proliferation assays on a panel of different cell lines in the presence of 10% FCS serum (37° C. and 5% (v/v) CO2). In a first step these cells were seeded and incubated for 24 hours in the absence of compound. In the second step the cells were incubated for 72 hours with the compounds to be tested for 72 hours. The viable cell number was finally assessed in a standard Alamar blue cell viability assay.
(§2) The viable cell number was assessed by incubation for either 4 h (HCT-116, H1299, H460) 6 h (SKOV3, HT29, U87-MG, Colo205) or 24 h (A2780, PC3, MDA-MB-231, A549, MCF-7) with Alamar blue (Resazurin 9 μg/ml, K-Ferrocyanide 90 μM K-Ferricyanide 90 μM) and the converted fluorescent product was quantified on a fluorescent plate readed (544 nm/590 nm). Effect of the compounds is calculated as of on control cells.
(Alamar Blue is a resazurin reagent that responds to reducing activity.)

For assay [3], the system named is H1299. The experiment in a line: Cellular proliferation assay (Alamar blue), H1299. To be noted: H1299 cells, 72 hours with compound, 10% FCS; for IC50: Homo sapiens, NCI-H1299, 72 h, read-out: pIC50 H1299 (converted). Type of assay: cell-based. On the procedure:
as §1, §2

Assay [4] has as its system HCT-116. The experiment in a line: Cellular proliferation assay (Alamar blue), HCT-116. The class given is cell-based. The conditions noted are these: HCT-116 cells, 72 hours with compound, 10% FCS; for IC50: Homo sapiens, HCT-116, 72 h, read-out: pIC50 HCT-116 (converted). The procedure:
as §1, §2

For assay [5], the target named is PLK4 (h) (Homo sapiens, UniProt O00444). The experiment in a line: PLK-4 human kinase assay (SPA). Type of assay: biochemical. The conditions noted are these: for IC50: read-out: PLK4 pIC50 (converted). The method in brief: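 Radiometric readout: 33P-labelled peptide captured on streptavidin SPA beads after EDTA stop, imaged by Leadseeker. Reaction ran 60 min at room temperature in Hepes pH 8.0 buffer. It contained 1 μM ATP with 2 nM [γ-33P]ATP, 10 μM biotinylated peptide and PLK4 (h) at 19 μg/ml.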
Chain of PLK4 (h) (O00444 whole entry): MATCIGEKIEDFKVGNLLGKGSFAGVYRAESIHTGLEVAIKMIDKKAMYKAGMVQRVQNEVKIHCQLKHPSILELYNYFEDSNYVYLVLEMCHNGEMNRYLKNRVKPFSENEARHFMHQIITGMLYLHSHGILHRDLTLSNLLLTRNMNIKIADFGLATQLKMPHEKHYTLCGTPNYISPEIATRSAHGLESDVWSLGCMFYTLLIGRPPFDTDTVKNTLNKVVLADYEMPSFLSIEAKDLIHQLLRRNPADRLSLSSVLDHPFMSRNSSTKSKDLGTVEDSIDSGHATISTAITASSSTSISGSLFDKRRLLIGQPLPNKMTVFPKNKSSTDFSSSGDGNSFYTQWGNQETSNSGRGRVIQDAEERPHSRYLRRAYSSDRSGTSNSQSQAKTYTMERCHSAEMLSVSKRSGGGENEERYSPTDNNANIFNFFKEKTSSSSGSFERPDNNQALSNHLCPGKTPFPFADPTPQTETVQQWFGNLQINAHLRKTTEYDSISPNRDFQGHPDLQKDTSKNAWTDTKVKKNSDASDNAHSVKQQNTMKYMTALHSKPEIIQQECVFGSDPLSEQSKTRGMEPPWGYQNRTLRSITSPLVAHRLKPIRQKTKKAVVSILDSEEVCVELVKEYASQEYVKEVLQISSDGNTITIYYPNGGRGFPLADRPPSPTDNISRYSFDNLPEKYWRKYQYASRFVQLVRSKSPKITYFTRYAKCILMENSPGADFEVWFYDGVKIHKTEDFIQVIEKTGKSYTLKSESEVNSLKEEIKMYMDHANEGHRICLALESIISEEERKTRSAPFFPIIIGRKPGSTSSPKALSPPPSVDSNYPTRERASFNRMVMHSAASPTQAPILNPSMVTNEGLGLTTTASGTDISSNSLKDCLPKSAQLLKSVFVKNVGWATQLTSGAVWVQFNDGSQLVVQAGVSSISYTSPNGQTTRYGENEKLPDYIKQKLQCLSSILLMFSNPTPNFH

Assay [6] addresses CDK1/CyclinB (h) (Homo sapiens, UniProt P06493). Kind of assay: CDK1/CyclinB human kinase assay (FRET). To be noted: for IC50: read-out: CDK1 pIC50 (converted). The class given is biochemical. An outline of the steps: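 Z'-LYTE FRET format: 0.2 μg/ml enzyme with 2 μM Ser/Thr peptide 12 and 10 μM ATP in 50 mM Hepes pH 7.5, 10 mM MgCl2, 1 mM EGTA, 0.01% Brij-35, 60 min at room temperature. Protease development 60 min; coumarin/fluorescein emission ratio (460/538 nm, excitation 390 nm) reports phosphorylation.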

Assay [7] has as its system U87MG. The experiment in a line: Cellular proliferation assay (Alamar blue), U87MG. Type of assay: cell-based. The conditions noted are these: U87MG cells, 72 hours with compound, 10% FCS; for IC50: Homo sapiens, U-87 MG, 72 h, read-out: pIC50 U87MG (converted). The procedure:
as §1, §2

In assay [8] the test system is MDA/MB231. The experiment in a line: Cellular proliferation assay (Alamar blue), MDA/MB231. The conditions noted are these: MDA/MB231 cells, 72 hours with compound, 10% FCS; for IC50: Homo sapiens, MDA-MB-231, 72 h, read-out: pIC50 MDA/MB231 (converted). Type of assay: cell-based. On the procedure:
as §1, §2

For assay [9], the target named is AuroraB (h) (Homo sapiens, UniProt Q96GD4). The experiment in a line: Aurora-B human kinase assay (SPA). The conditions noted are these: for IC50: read-out: AuroraB pIC50 (converted). The class given is biochemical. The method in brief: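 Scintillation proximity assay: AuroraB (h) at 0.5 μg/ml with 3 μM biotinylated peptide, 0.5 μM ATP and 2.2 nM [γ-33P]ATP in 60 mM Hepes pH 7.5, 3 mM MgCl2, 3 mM MnCl2, 2 mM DTT. 60 min at room temperature, EDTA stop, streptavidin PVT beads read on Leadseeker.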
Chain of AuroraB (h) (Q96GD4 whole entry): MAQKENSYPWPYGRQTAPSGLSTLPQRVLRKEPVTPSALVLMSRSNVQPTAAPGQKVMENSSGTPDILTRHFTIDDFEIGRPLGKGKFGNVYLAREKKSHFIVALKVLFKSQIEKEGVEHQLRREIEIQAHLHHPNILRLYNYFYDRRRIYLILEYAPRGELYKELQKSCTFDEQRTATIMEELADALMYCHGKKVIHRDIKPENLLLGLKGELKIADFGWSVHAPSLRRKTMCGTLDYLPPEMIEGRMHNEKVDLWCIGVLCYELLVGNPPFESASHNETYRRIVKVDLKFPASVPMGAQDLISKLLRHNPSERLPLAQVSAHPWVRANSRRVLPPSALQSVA

The subject of assay [10] is PC-3. Kind of assay: Cellular proliferation assay (Alamar blue), PC-3. The class given is cell-based. To be noted: PC-3 cells, 72 hours with compound, 10% FCS; for IC50: Homo sapiens, PC-3, 72 h, read-out: pIC50 PC-3 (converted). The procedure:
as §1, §2

Chain of CDK1/CyclinB (h) (P06493 whole entry): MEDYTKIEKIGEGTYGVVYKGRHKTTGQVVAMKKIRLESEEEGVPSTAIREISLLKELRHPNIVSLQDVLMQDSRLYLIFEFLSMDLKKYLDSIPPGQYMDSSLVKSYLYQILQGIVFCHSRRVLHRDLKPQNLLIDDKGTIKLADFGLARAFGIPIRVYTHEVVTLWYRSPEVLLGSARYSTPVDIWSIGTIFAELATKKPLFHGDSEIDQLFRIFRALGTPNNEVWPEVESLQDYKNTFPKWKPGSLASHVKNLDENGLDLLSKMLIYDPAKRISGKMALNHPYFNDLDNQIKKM
Chain of CDK1/CyclinB (h) (P14635 whole entry partner): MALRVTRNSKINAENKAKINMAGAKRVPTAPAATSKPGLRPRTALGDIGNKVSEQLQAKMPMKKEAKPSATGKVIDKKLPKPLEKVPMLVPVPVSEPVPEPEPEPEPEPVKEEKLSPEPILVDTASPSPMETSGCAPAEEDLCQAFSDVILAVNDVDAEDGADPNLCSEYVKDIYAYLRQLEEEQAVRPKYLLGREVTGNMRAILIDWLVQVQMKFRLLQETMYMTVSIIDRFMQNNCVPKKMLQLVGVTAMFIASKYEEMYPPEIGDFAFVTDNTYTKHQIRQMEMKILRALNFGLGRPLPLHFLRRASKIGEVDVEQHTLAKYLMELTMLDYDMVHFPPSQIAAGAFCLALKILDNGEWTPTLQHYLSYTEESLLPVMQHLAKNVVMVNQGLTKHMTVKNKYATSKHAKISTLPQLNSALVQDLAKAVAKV
Chain of GSK3β (h) (P49841 whole entry): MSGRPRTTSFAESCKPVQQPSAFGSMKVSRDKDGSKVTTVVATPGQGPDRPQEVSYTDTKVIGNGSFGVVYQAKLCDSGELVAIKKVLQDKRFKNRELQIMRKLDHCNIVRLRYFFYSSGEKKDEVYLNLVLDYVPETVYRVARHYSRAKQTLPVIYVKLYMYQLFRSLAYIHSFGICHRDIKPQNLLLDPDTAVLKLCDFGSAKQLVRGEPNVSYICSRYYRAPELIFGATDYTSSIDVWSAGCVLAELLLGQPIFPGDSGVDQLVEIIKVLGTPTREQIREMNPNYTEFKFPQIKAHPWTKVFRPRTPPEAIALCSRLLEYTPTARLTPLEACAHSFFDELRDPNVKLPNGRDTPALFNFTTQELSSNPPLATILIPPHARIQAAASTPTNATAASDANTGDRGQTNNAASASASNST

For the compound `CN1CCCNc2ncnc3c2C(=CNc2cccc(c2)OCCCC1=O)C(=O)N3` (mixture of isomers) [Compound 35], the “GSK3B pIC50” value in assay [1] is recorded as 7.4. Also, the “pIC50 A2780” value in [2] is 5.17. In assay [3], the “pIC50 H1299” value is reported as 5.62. Moreover, the “pIC50 HCT-116” value in assay [4] amounted to 5.85. Also, the “PLK4 pIC50” value in assay [5] is recorded as 7.01. The “CDK1 pIC50” value in assay [6] worked out at 6.56. In assay [7], the “pIC50 U87MG” value is 5.50. Also, the “pIC50 MDA/MB231” value in assay [8] is less than 5. Besides, in [9], the “AuroraB pIC50” value worked out at 6.88. Also, in assay [10], the “pIC50 PC-3” value is 5.31.

For the compound `COc1ccc2cc1OCCCCC(=O)NCCN(C)c1ncnc3c1C(=CN2)C(=O)N3` (mixture of isomers) [Compound 44], the “GSK3B pIC50” value in [1] is on record as 5.31. For the same compound, in [2], the “pIC50 A2780” value is less than 5. For the same compound, in assay [3], the “pIC50 H1299” value is listed as less than 5. In addition, the “pIC50 HCT-116” value in assay [4] is less than 5. For the same compound, the “PLK4 pIC50” value in assay [5] was determined as 5.22. For the same compound, the “CDK1 pIC50” value in assay [6] is listed as less than 5. In addition, the “pIC50 U87MG” value in [7] is listed as less than 5. The “pIC50 MDA/MB231” value in [8] is reported as less than 5. In addition, in assay [9], the “AuroraB pIC50” value is on record as less than 5. In assay [10], the “pIC50 PC-3” value is reported as less than 5.

For `COc1ccc2cc1OCCCCCC(=O)NCCN(C)c1ncnc3c1C(=CN2)C(=O)N3` (mixture of isomers) [Compound 46], the “GSK3B pIC50” value in assay [1] is recorded as 5.07. In addition, the “pIC50 A2780” value in assay [2] is recorded as less than 5. Besides, in assay [3], the “pIC50 H1299” value was less than 5. Also, the “pIC50 HCT-116” value in assay [4] is reported as less than 5. Also, in assay [5], the “PLK4 pIC50” value turned out to be 5.18. Moreover, the “CDK1 pIC50” value in [6] is less than 5. Further, the “pIC50 U87MG” value in assay [7] is given as 5.04. The “pIC50 MDA/MB231” value in assay [8] is on record as less than 5. Besides, the “AuroraB pIC50” value in [9] is 5.13. Also, the “pIC50 PC-3” value in [10] is less than 5.

As for `CN1CCNc2ncnc3c2C(=CNc2cccc(c2)OCCCC1=O)C(=O)N3` (mixture of isomers) [Compound 58], the “GSK3B pIC50” value in assay [1] is 6.88. For the same compound, in assay [2], the “pIC50 A2780” value was found to be 6.2. The “pIC50 H1299” value in assay [3] is on record as 5.89. Further, in assay [4], the “pIC50 HCT-116” value was 6.17. In assay [5], the “PLK4 pIC50” value came to 6.75. Also, the “CDK1 pIC50” value in [6] was 6.16. Moreover, the “pIC50 U87MG” value in assay [7] is 5.13. Besides, in assay [8], the “pIC50 MDA/MB231” value is reported as less than 5. The “AuroraB pIC50” value in assay [9] is recorded as 6.33. Besides, in assay [10], the “pIC50 PC-3” value is recorded as less than 5.

As to `CN1CCNC(=O)CCCCOc2cccc(c2)N/C=C2\C(=O)Nc3ncnc1c32` [Compound 43], the IC50 was 2.51 µM in assay [1]; more than 10 µM in [2]; more than 10 µM in assay [3]; more than 10 µM in assay [4]; 2.63 µM in assay [5]; 4.27 µM in [6]. Further, the IC50 in assay [7], in assay [8] and in [10] was more than 10 µM throughout.

On to `CN1CCCNc2ncnc3c2/C(=C/Nc2cc(cc(C(F)(F)F)c2)OCCCC1=O)C(=O)N3` [Compound 113], for which the IC50 in assay [1], in [2], in [3], in assay [4], in [6] and in [7] was more than 10 µM each time. The IC50 in assay [8] was more than 10 µM; in assay [9], 1.38 µM; in assay [10], more than 10 µM.

Take `CN1CCNC(=O)CCCOc2cccc(c2)N/C=C2\C(=O)Nc3ncnc(c32)NCC1` [Compound 159]: the IC50 in assay [1] is 2.88 µM; in assay [2], more than 10 µM; in assay [3], more than 10 µM; in assay [4], more than 10 µM; in [5], 4.37 µM; in assay [7], more than 10 µM. The IC50 in assay [8], in [9] and in assay [10] was more than 10 µM in each case.

Turning to `CN1CCNC(=O)COc2cccc(c2)N/C=C2\C(=O)Nc3ncnc(c32)NCC1` [Compound 167], the IC50 in assay [1] was 0.933 µM and 1.12 µM; in assay [2] it was 5.89 µM; in assay [3] it was more than 10 µM; in [4], 5.5 µM; in assay [5], 2.4 µM; in assay [7], more than 10 µM. Further, the IC50 is more than 10 µM in [8]; 6.76 µM and 3.24 µM in assay [9]; more than 10 µM in [10]. Also, the “pIC50 A2780” value in [2] amounted to 5.13. Moreover, the “pIC50 HCT-116” value in [4] was 5.06.

As for `CN1CCNc2ncnc3c2/C(=C/Nc2cccc(c2)OCC(=O)N2CCC[C@@H]2C1)C(=O)N3` [Compound 168], the IC50 in assay [1] was 7.59 µM and 5.75 µM; in [2] it was more than 10 µM; in assay [3], more than 10 µM; in [4] it was more than 10 µM; in [5] it was > 10 µM and 6.17 µM; in assay [7] it was more than 10 µM. For the same compound, the IC50 in assay [8], in assay [9] and in assay [10] was more than 10 µM in each case.

For `CN1CCNc2ncnc3c2/C(=C/Nc2cccc(c2)OCC(=O)N[C@H](Cc2ccccc2)C1)C(=O)N3` [Compound 169], the IC50 in assay [1] is 1.86 µM and 3.24 µM; in [2], 9.12 µM; in assay [3], 8.32 µM; in assay [4], more than 10 µM; in assay [5], 1.82 µM and 2 µM; in assay [7], 7.41 µM. Moreover, the results for the IC50 in assay [8], in assay [9] and in assay [10] were more than 10 µM, 3.55 µM and more than 10 µM, respectively. In assay [2], the “pIC50 A2780” value stood at 5.08. Also, in [3], the “pIC50 H1299” value is given as less than 5. The “pIC50 HCT-116” value in assay [4] came out at 5.07. For the same compound, in assay [7], the “pIC50 U87MG” value is on record as less than 5.

As to `CN1CCCNc2ncnc3c2/C(=C/Nc2cccc(c2)OCC(=O)N2CCC[C@@H]2C1)C(=O)N3` [Compound 170], the IC50 in assay [1] was 8.91 µM; in assay [2], more than 10 µM; in [3], more than 10 µM; in assay [4], more than 10 µM; in assay [5] it was 7.41 µM; in assay [7], more than 10 µM. For the same compound, the IC50 in [8], in [9] and in assay [10] was more than 10 µM in each case.

Consider `CN1CCCNc2ncnc3c2/C(=C/Nc2cccc(c2)OCC(=O)N[C@H](Cc2ccccc2)C1)C(=O)N3` [Compound 176], for which the IC50 in assay [1] was 9.55 µM; in assay [2], more than 10 µM; in assay [3] it was more than 10 µM; in assay [4], more than 10 µM; in [5] it was 0.468 µM; in [7], more than 10 µM. The IC50 in [8] was more than 10 µM; in [9] it was 6.76 µM; in assay [10], more than 10 µM.

With `CN1CCNc2ncnc3c2/C(=C/Nc2ccc(Cl)c(c2)OCC(=O)N2CCC[C@@H]2C1)C(=O)N3` [Compound 192], the IC50 in assay [1] is 5.01 µM; in assay [2], 3.09 µM; in assay [3], 2.51 µM; in [4] it was 2.19 µM; in [5], more than 10 µM; in [7] it was more than 10 µM. The IC50 in assay [8], in assay [9] and in assay [10] was more than 10 µM throughout.
